Test results taken from US11072588B2, “Barbituric acid derivatives comprising cationic and lipophilic groups” (UNIVERSITETET I TROMSØ—NORGES ARKTISKE UNIVERSITET, priority 2017, dated 2021).
Read-outs that look alike come from different tables or passages of the source.

How the values were obtained:
[1] = system: P. aeruginosa K34-73; test: MIC, multi-resistant clinical isolate; format: cell-based, Pseudomonas aeruginosa; conditions: for MIC: Pseudomonas aeruginosa
Protocol: (§1) Working solutions of the test derivatives were prepared with up to 100% DMSO and stored at −20° C. If necessary, the solutions were heated to 40-80° C. before testing to facilitate complete dissolution. Double-distilled water was used in all dilutions prepared. […] A microdilution susceptibility test was used for MIC determination according to Clinical and Laboratory Standards Institute, “Methods for Dilution Antimicrobial Sisceptibility Tests for Bacteria That Graw Aerobically”, Approved Standard M07-A9, edition 2012, with modifications as described by Igumnova et al (Bioorg Med Chem, 2016, 24 (22), 5884-5894).
(§2) Briefly, the bacterial inoculum was adjusted to approximately 2.5-3×10^4 cells/mL in Mueller-Hinton broth (MHB, Difco Laboratories, USA), and incubated in a ratio of 1:1 with test derivatives in polystyrene 96-well flat-bottom microplates (NUNC, Roskilde, Denmark). Positive growth control (without test derivatives) and negative control (without bacteria) were included. The reference antibiotic was oxytetracycline hydrochloride (Sigma Aldrich, Saint Louis, Mo., USA). The microplates were incubated in an EnVision microplate reader (Perkin-Elmer, Turku, Finland) placed in an incubator set to 35° C. for 48 h. The MIC value was defined as the lowest concentration of derivative resulting in no bacterial growth as determined by OD600 measurement. All derivatives were tested in three parallels.
(§3) The MIC was determined as explained above with some exceptions; working solutions of test derivatives were prepared from concentrated DMSO stocks stored at room temperature, the density of the bacterial inoculum was increased 40× to 1-1.2×10^6 cells/mL, enterococci were incubated in Brain Heart Infusion broth (BHIB, Difco Laboratories, USA), the microplates were incubated for 24 h, and the derivatives were tested in four parallels.

[2] = system: P. aeruginosa K44-24; test: MIC, multi-resistant clinical isolate; format: cell-based, Pseudomonas aeruginosa; conditions: for MIC: Pseudomonas aeruginosa, K4424, read-out: Antimicrobial activity (MIC)
Protocol: as §1, §2, §3

[3] = system: P. aeruginosa 50692520; test: MIC, multi-resistant clinical isolate; format: cell-based, Pseudomonas aeruginosa; conditions: for MIC: Pseudomonas aeruginosa, read-out: Antimicrobial activity (MIC)
Protocol: as §1, §2, §3

[4] = system: E. coli 50857972; test: MIC, multi-resistant clinical isolate; format: cell-based, Escherichia coli; conditions: for MIC: Escherichia coli, read-out: Antimicrobial activity (MIC); for selectivity index (EC50/MIC): RBC EC50 / MIC
Protocol: as §1, §2, §3

[5] = system: E. coli 50676002; test: MIC, multi-resistant clinical isolate; format: cell-based, Escherichia coli; conditions: for selectivity index (EC50/MIC): RBC EC50 / MIC
Protocol: as §1, §2, §3

[6] = system: E. coli 50639799; test: MIC, multi-resistant clinical isolate; format: cell-based, Escherichia coli; conditions: for MIC: Escherichia coli, read-out: Antimicrobial activity (MIC); for selectivity index (EC50/MIC): RBC EC50 / MIC
Protocol: as §1, §2, §3

[7] = system: E. coli 50739822; test: MIC, multi-resistant clinical isolate; format: cell-based, Escherichia coli; conditions: for MIC: Escherichia coli, read-out: Antimicrobial activity (MIC); for selectivity index (EC50/MIC): RBC EC50 / MIC
Protocol: as §1, §2, §3

[8] = system: E. coli 50579417; test: MIC, multi-resistant clinical isolate; format: cell-based, Escherichia coli; conditions: for MIC: Escherichia coli, read-out: Antimicrobial activity (MIC); for selectivity index (EC50/MIC): RBC EC50 / MIC
Protocol: as §1, §2, §3

[9] = system: S. epidermidis; test: Anti-biofilm activity (inhibition of biofilm formation); format: cell-based; conditions: Staphylococcus epidermidis, read-out: Anti-biofilm IC50
[10] = system: E. faecium K36-18; test: MIC, multi-resistant clinical isolate; format: cell-based, Enterococcus faecium; conditions: for MIC: Enterococcus faecium, K3618, read-out: Antimicrobial activity (MIC); for selectivity index (EC50/MIC): RBC EC50 / MIC, E. faecium K36-18
Protocol: as §1, §2, §3

[11] = system: E. faecium 50758899; test: MIC, multi-resistant clinical isolate; format: cell-based, Enterococcus faecium; conditions: for MIC: Enterococcus faecium, read-out: Antimicrobial activity (MIC); for selectivity index (EC50/MIC): RBC EC50 / MIC
Protocol: as §1, §2, §3

[12] = system: E. faecium 50673722; test: MIC, multi-resistant clinical isolate; format: cell-based, Enterococcus faecium; conditions: for MIC: Enterococcus faecium, read-out: Antimicrobial activity (MIC); for selectivity index (EC50/MIC): RBC EC50 / MIC
Protocol: as §1, §2, §3

[13] = system: E. faecium 50901530; test: MIC, multi-resistant clinical isolate; format: cell-based, Enterococcus faecium; conditions: for MIC: Enterococcus faecium, read-out: Antimicrobial activity (MIC); for selectivity index (EC50/MIC): RBC EC50 / MIC
Protocol: as §1, §2, §3

[14] = system: E. faecium TUH50-22; test: MIC, multi-resistant clinical isolate; format: cell-based, Enterococcus faecium; conditions: for MIC: Enterococcus faecium, TUH5022, read-out: Antimicrobial activity (MIC); for selectivity index (EC50/MIC): RBC EC50 / MIC
Protocol: as §1, §2, §3

[15] = system: Escherichia coli ATCC 25922; test: MIC assay, antibiotic susceptible reference strain; format: cell-based; conditions: Escherichia coli, ATCC25922, read-out: Antimicrobial activity (MIC) E. c
Protocol: as §1, §2

[16] = system: Staphylococcus aureus ATCC 9144; test: MIC assay, antibiotic susceptible reference strain; format: cell-based; conditions: Staphylococcus aureus, ATCC9144, read-out: Antimicrobial activity (MIC) S. a
Protocol: as §1, §2

[17] = system: Pseudomonas aeruginosa PA01, DSM 19880 (ATCC 15692); test: MIC assay, antibiotic susceptible reference strain; format: cell-based; conditions: Pseudomonas aeruginosa, read-out: Antimicrobial activity (MIC) P. a
Protocol: as §1, §2

[18] = system: Corynebacterium glutamicum ATCC 13032; test: MIC assay, antibiotic susceptible reference strain; format: cell-based; conditions: Corynebacterium glutamicum, ATCC13032, read-out: Antimicrobial activity (MIC) C. g
Protocol: as §1, §2

[19] = system: S. aureus N315; test: MIC, multi-resistant clinical isolate; format: cell-based, Staphylococcus aureus; conditions: for selectivity index (EC50/MIC): RBC EC50 / MIC, S. aureus N315; for MIC: Staphylococcus aureus, N315, read-out: Antimicrobial activity (MIC)
Protocol: as §1, §2, §3

[20] = system: S. aureus strain WIS; test: MIC, multi-resistant clinical isolate; format: cell-based, Staphylococcus aureus; conditions: for selectivity index (EC50/MIC): RBC EC50 / MIC, S. aureus strain WIS; for MIC: Staphylococcus aureus, read-out: Antimicrobial activity (MIC)
Protocol: as §1, §2, §3

[21] = system: S. aureus IHT 99040; test: MIC, multi-resistant clinical isolate; format: cell-based, Staphylococcus aureus; conditions: for selectivity index (EC50/MIC): RBC EC50 / MIC; for MIC: Staphylococcus aureus, IHT99040, read-out: Antimicrobial activity (MIC)
Protocol: as §1, §2, §3

[22] = system: S. aureus NCTC 10442; test: MIC, multi-resistant clinical isolate; format: cell-based, Staphylococcus aureus; conditions: for selectivity index (EC50/MIC): RBC EC50 / MIC, S. aureus NCTC 10442; for MIC: Staphylococcus aureus, NCTC10442, read-out: Antimicrobial activity (MIC)
Protocol: as §1, §2, §3

[23] = system: S. aureus strain 85/2082; test: MIC, multi-resistant clinical isolate; format: cell-based, Staphylococcus aureus; conditions: for selectivity index (EC50/MIC): RBC EC50 / MIC, S. aureus strain 85/2082; for MIC: Staphylococcus aureus, 85/2082, read-out: Antimicrobial activity (MIC)
Protocol: as §1, §2, §3

CC(C)(C)c1ccc(CC2(Cc3ccc(C(C)(C)C)cc3)C(=O)N(CCCCN)C(=O)N(CCCCN)C2=O)cc1 [Compound 7(i), 1,3-bis(4-aminobutyl)-5,5-bis(4-tertbutylbenzyl) pyrimidin-2,4,6(1H,3H,5H)-trione]
(18): selectivity index (EC50/MIC) [6] | selectivity index (EC50/MIC) [7] | selectivity index (EC50/MIC) [8] | selectivity index (EC50/MIC) [10] | selectivity index (EC50/MIC) [11] | selectivity index (EC50/MIC) [12] | selectivity index (EC50/MIC) [14] | selectivity index (EC50/MIC) [19] | selectivity index (EC50/MIC) [20] | selectivity index (EC50/MIC) [21] | selectivity index (EC50/MIC) [22] | selectivity index (EC50/MIC) [23]
1 µg/mL: MIC [18]
(36): selectivity index (EC50/MIC) [4] | selectivity index (EC50/MIC) ([5]; E. coli 50676002) | selectivity index (EC50/MIC) [13]
8 µg/mL: MIC [6] | MIC [7] | MIC [8] | MIC [10] | MIC [11] | MIC [12] | MIC [14] | MIC [17] | MIC [19] | MIC [20] | MIC [21] | MIC [22] | MIC [23]
4 µg/mL: MIC [4] | MIC ([5]; Escherichia coli, 50676002, read-out: Antimicrobial activity (MIC)) | IC50 [9] | MIC [13] | MIC [15] | MIC [16]
> 32 µg/mL: MIC ([1]; K3473, read-out: Antimicrobial activity (MIC)) | MIC [2] | MIC [3]

CC(C)(C)c1cc(CC2(Cc3cc(C(C)(C)C)cc(C(C)(C)C)c3)C(=O)N(CCCCNC(=N)N)C(=O)N(CCCCNC(=N)N)C2=O)cc(C(C)(C)C)c1 [8(iii), 1,1′-(4,4′-(5,5-bis(3,5-di-tert-butylbenzyl)-2,4,6-trioxodihydropyrimidine-1,3(2H,4H)-diyl)bis(butane-4,1-diyl))-diguanidine]
2 µg/mL: IC50 [9] | MIC [10] | MIC [11] | MIC [12] | MIC [13] | MIC [14] | MIC [20] | MIC [21] | MIC [22] | MIC [23]
(<2): selectivity index (EC50/MIC) [10] | selectivity index (EC50/MIC) [11] | selectivity index (EC50/MIC) [12] | selectivity index (EC50/MIC) [13] | selectivity index (EC50/MIC) [14] | selectivity index (EC50/MIC) [20] | selectivity index (EC50/MIC) [21] | selectivity index (EC50/MIC) [22] | selectivity index (EC50/MIC) [23]
0.25 µg/mL: MIC [18]
(<0.25): selectivity index (EC50/MIC) ([2]; RBC EC50 / MIC) | selectivity index (EC50/MIC) ([3]; RBC EC50 / MIC) | selectivity index (EC50/MIC) ([5]; E. coli 50676002) | selectivity index (EC50/MIC) [8]
16 µg/mL: MIC [2] | MIC [3] | MIC ([5]; Escherichia coli, E. coli 50676002, read-out: Antimicrobial activity (MIC)) | MIC [8]
1 µg/mL: MIC [16]
4 µg/mL: MIC [15] | MIC [17] | MIC [19]
(<0.5): selectivity index (EC50/MIC) ([1]; RBC EC50 / MIC, P. aeruginosa K34-73) | selectivity index (EC50/MIC) [4] | selectivity index (EC50/MIC) [6] | selectivity index (EC50/MIC) [7]
8 µg/mL: MIC ([1]; K3473, P. aeruginosa K34-73, read-out: Antimicrobial activity (MIC)) | MIC [4] | MIC [6] | MIC [7]
(<1): selectivity index (EC50/MIC) [19]
